Reference: article PMC5494507, “γ‐Secretase inhibitors in cancer clinical trials are pharmacologically and functionally distinct” (EMBO Molecular Medicine, 2017)

Assays:
Aβ40 = test system: Aβ40; parameters: method as in ref Appendix Table S1 (Gavai et al, 2015; Dovey et al, 2001; Cook et al, 2010; Krop et al, 2012; Wei et al, 2010; Luistro et al, 2009; Mitani et al, 2012); conditions: ref Appendix Table S1 (Gavai et al, 2015; Dovey et al, 2001; Cook et al, 2010; Krop et al, 2012; Wei et al, 2010; Luistro et al, 2009; Mitani et al, 2012); read-out: Reported IC50s Aβ40; cited from earlier work
NOTCH = test system: NOTCH; parameters: method as in ref Appendix Table S1 (Gavai et al, 2015; Cook et al, 2010; Krop et al, 2012; Wei et al, 2010; Luistro et al, 2009; Mitani et al, 2012); conditions: ref Appendix Table S1 (Gavai et al, 2015; Cook et al, 2010; Krop et al, 2012; Wei et al, 2010; Luistro et al, 2009; Mitani et al, 2012); read-out: Reported IC50s NOTCH; cited from earlier work
SPPL2b = biological target: T1, SPPL2b (Homo sapiens, UniProt Q8TCT7); test: Cell-based SPPL2b cleavage assay, stable SPPL2b/FBA overexpressing HEK 293 cell line (ELISA); conditions: 16 h
T1 construct: expressed in transfected cells
T1 sequence (Q8TCT7 26-592): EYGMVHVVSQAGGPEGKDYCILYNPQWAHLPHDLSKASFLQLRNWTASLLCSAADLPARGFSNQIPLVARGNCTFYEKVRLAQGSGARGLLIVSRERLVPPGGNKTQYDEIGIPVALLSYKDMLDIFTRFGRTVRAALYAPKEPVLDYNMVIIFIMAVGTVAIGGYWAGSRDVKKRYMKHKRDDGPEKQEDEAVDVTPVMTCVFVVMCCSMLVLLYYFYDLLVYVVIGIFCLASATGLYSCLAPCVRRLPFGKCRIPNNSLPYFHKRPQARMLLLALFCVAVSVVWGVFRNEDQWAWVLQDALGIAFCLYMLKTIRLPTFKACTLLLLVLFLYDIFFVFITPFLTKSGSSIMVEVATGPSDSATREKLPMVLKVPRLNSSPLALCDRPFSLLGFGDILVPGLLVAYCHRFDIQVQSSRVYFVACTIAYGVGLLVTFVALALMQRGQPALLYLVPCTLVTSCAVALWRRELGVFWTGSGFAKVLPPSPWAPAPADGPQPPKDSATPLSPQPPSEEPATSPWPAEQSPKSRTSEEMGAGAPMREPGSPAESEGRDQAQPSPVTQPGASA
Description: It is known that SPP/SPPLs can be inhibited by select GSIs (Ran et al, 2015). Here, we tested the effect of various GSIs on the SPP/SPPL family members SPPL2a, SPPL2b, and SPP. We co‐transfected SPPLs with the BRI2 based chimeric SPP/SPPL substrate that we have referred to as FBA into HEK 293t cells. SPPL‐specific inhibitor (ZLL)2‐ketone was used as positive control. DAPT was not tested here as we and others have previously reported it had no effect on SPP activity at concentration up to 100 μM (Weihofen et al, 2003). […] Dose responses of BMS‐906024, RO4929097, and PF‐3084014 were performed with a similar strategy, but a stable SPPL2b/FBA overexpressing HEK 293 cell line was used instead of transient transfection (Fig 8B). […] Table 3 compares the GSIs’ potencies on γ‐secretase and SPPL2b. The average of IC50s on cNOTCH1sub, cNOTCH2sub, cNOTCH4sub, and APP was used as the GSI's potency on γ‐secretase.
SPPL2a, SPPL2b, SPP, and chimeric substrate FBA were generated as previously described (Ran et al, 2015). A20 cells (TIB‐208; ATCC, Manassas, VA, USA) were cultured in RPMI‐1640 medium (ATCC) supplied with 10% fetal bovine serum, 1% penicillin/streptomycin, and 0.05 mM 2‐mercaptoethanol (Life Technologies). Various concentrations of GSIs and (ZLL)2‐ketone as indicated in figures were applied to transfected HEK 293t cells at 70–90% confluence or A20 cells at a density of 5 × 10^5 cells/ml with fresh media in 48‐well format for 16 h. Cells and conditioned media were used for WB, IP, and ELISA.
Sandwich ELISAs used for Aβ detection were performed as previously described (Murphy et al, 1999; Ran et al, 2014). Briefly, Aβ and Aβ‐like peptides in conditioned media were captured with Ab5 antibody and detected with horseradish peroxidase labeled mAb 4G8 (Biolegend). Synthetic Aβ1‐40 was used as standard. All ELISAs were developed with TMB substrate (KPL, Gaithersburg, Maryland, USA). Bis‐Tris precast gels (Biorad, Hercules, CA, USA) were used for all SDS–PAGE. […] The supernatants were collected, and protein concentrations were determined by Bradford Assay. […]

| Structure (SMILES) | IC50 (Aβ40) | IC50 (NOTCH) | IC50 (SPPL2b) |
| --- | --- | --- | --- |
| CN1C(=O)[C@@H](NC(=O)[C@H](CCC(F)(F)F)[C@H](CCC(F)(F)F)C(N)=O)N=C(c2ccccc2)c2ccccc21 [BMS‐906024] | 1.6 nM | 0.7 to 3.4 nM | 28.3 nM |
| O=C(O)CC[C@H]1CC[C@@](c2cc(F)ccc2F)(S(=O)(=O)c2ccc(Cl)cc2)CC1 [MK‐0752] | 5 nM | 55 nM | – |
| CCC[C@H](N[C@H]1CCc2cc(F)cc(F)c2C1)C(=O)Nc1cn(C(C)(C)CNCC(C)(C)C)cn1 [PF‐3084014] | 6.2 nM | 13.3 nM | 1160 nM |
| CC(C)(C(=O)NCC(F)(F)C(F)(F)F)C(=O)N[C@@H]1C(=O)Nc2ccccc2-c2ccccc21 [RO4929097] | 14 nM | 5 nM | 72.8 nM |
| CC(C)[C@H](O)C(=O)N[C@@H](C)C(=O)N[C@@H]1C(=O)N(C)CCc2ccccc21 [Semagacestat] | 12.1 nM | 14.1 nM | – |
